Laboratory results: PubChem BioAssay (NCI)
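Assay format: 96-well plates, 48-hour exposure. The concentration for full growth arrest is given as TGI.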

What was measured:
Assay in all cases: NCI-60 cell line screen, 48 h
SK-MEL-28 melanoma = system: SK-MEL-28 melanoma
SR leukemia = system: SR leukemia
KM12 colon = system: KM12 colon
EKVX NSCLC = system: EKVX NSCLC
TK-10 renal = system: TK-10 renal
786-0 renal = system: 786-0 renal
SW-620 colon = system: SW-620 colon
RPMI-8226 leukemia = system: RPMI-8226 leukemia
OVCAR-8 ovarian = system: OVCAR-8 ovarian
M14 melanoma = system: M14 melanoma
A549 NSCLC = system: A549 NSCLC
HOP-62 NSCLC = system: HOP-62 NSCLC
OVCAR-4 ovarian = system: OVCAR-4 ovarian
CAKI-1 renal = system: CAKI-1 renal
HOP-92 NSCLC = system: HOP-92 NSCLC
U251 CNS = system: U251 CNS
HL-60(TB) leukemia = system: HL-60(TB) leukemia
SF-268 CNS = system: SF-268 CNS
HS 578T breast = system: HS 578T breast
HCT-116 colon = system: HCT-116 colon
SK-MEL-5 melanoma = system: SK-MEL-5 melanoma
MDA-N = system: MDA-N
BT-549 breast = system: BT-549 breast
NCI-H23 lung = system: NCI-H23 lung
RXF 393 renal = system: RXF 393 renal
PC-3 prostate = system: PC-3 prostate
SF-295 CNS = system: SF-295 CNS
IGROV1 ovarian = system: IGROV1 ovarian
NCI-H522 lung = system: NCI-H522 lung
NCI-H226 lung = system: NCI-H226 lung
UACC-62 melanoma = system: UACC-62 melanoma
NCI/ADR-RES ovarian = system: NCI/ADR-RES ovarian
CCRF-CEM leukemia = system: CCRF-CEM leukemia
A498 renal = system: A498 renal
HCT-15 colon = system: HCT-15 colon
COLO 205 colon = system: COLO 205 colon
LOX IMVI melanoma = system: LOX IMVI melanoma
SNB-19 CNS = system: SNB-19 CNS
T-47D breast = system: T-47D breast
ACHN renal = system: ACHN renal
HCC-2998 colon = system: HCC-2998 colon
NCI-H460 lung = system: NCI-H460 lung
DU-145 prostate = system: DU-145 prostate
K-562 leukemia = system: K-562 leukemia
MOLT-4 leukemia = system: MOLT-4 leukemia
SN12C renal = system: SN12C renal
MCF7 breast = system: MCF7 breast
SK-OV-3 ovarian = system: SK-OV-3 ovarian
UO-31 renal = system: UO-31 renal
SNB-75 CNS = system: SNB-75 CNS
HT29 colon = system: HT29 colon
UACC-257 melanoma = system: UACC-257 melanoma
MALME-3M melanoma = system: MALME-3M melanoma
SF-539 CNS = system: SF-539 CNS
MDA-MB-435 = system: MDA-MB-435
OVCAR-5 ovarian = system: OVCAR-5 ovarian
SK-MEL-2 melanoma = system: SK-MEL-2 melanoma

CC(=O)N=C1C=C(NC(C)=O)C(=O)c2ccccc21 was tested, and the TGI (SK-MEL-28 melanoma) was 8.04 µM, the TGI (SR leukemia) was 4.06 µM and the TGI (KM12 colon) was 17.5 µM. For the same molecule, the TGI (EKVX NSCLC) was 12.5 µM, the TGI (TK-10 renal) was 12.3 µM and the TGI (786-0 renal) was 3.37 µM. The TGI (SW-620 colon) was 3.86 µM, the TGI (RPMI-8226 leukemia) was 4.13 µM and the TGI (OVCAR-8 ovarian) was 6.04 µM. It also gave a TGI (M14 melanoma) of 3.33 µM, a TGI (A549 NSCLC) of 19.1 µM and a TGI (HOP-62 NSCLC) of 40.4 µM. It also gave a TGI (OVCAR-4 ovarian) of 3.09 µM, a TGI (CAKI-1 renal) of 3.43 µM and a TGI (HOP-92 NSCLC) of 3.15 µM. The TGI (U251 CNS) was 10.7 µM, the TGI (HL-60(TB) leukemia) was 6.84 µM and the TGI (SF-268 CNS) was 10.2 µM. For the same molecule, the TGI (HS 578T breast) was 56.5 µM, the TGI (HCT-116 colon) was 3.62 µM and the TGI (SK-MEL-5 melanoma) was 3.19 µM. It also gave a TGI (MDA-N) of 3.38 µM, a TGI (BT-549 breast) of 4.85 µM and a TGI (NCI-H23 lung) of 2300 nM. For the same molecule, the TGI (RXF 393 renal) was 5.46 µM, the TGI (PC-3 prostate) was 7.49 µM and the TGI (SF-295 CNS) was 8.88 µM. It also gave a TGI (IGROV1 ovarian) of 3.59 µM, a TGI (NCI-H522 lung) of 3.06 µM and a TGI (NCI-H226 lung) of 14.9 µM. It also gave a TGI (UACC-62 melanoma) of 6.18 µM, a TGI (NCI/ADR-RES ovarian) of 7.59 µM and a TGI (CCRF-CEM leukemia) of 7.62 µM. It also gave a TGI (A498 renal) of 28.6 µM, a TGI (HCT-15 colon) of 9.13 µM and a TGI (COLO 205 colon) of 3.79 µM. The TGI (LOX IMVI melanoma) was 3.19 µM, the TGI (SNB-19 CNS) was 7.9 µM and the TGI (T-47D breast) was 4.05 µM. The TGI (ACHN renal) was 3.12 µM, the TGI (HCC-2998 colon) was 34.3 µM and the TGI (NCI-H460 lung) was 28.1 µM. For the same molecule, the TGI (DU-145 prostate) was 3.18 µM, the TGI (K-562 leukemia) was 7.01 µM and the TGI (MOLT-4 leukemia) was 5.17 µM. The TGI (SN12C renal) was 3.47 µM, the TGI (MCF7 breast) was 3.46 µM and the TGI (SK-OV-3 ovarian) was 19.9 µM. The TGI (UO-31 renal) was 4.26 µM, the TGI (SNB-75 CNS) was 8.66 µM and the TGI (HT29 colon) was 6.27 µM. The TGI (UACC-257 melanoma) was 3.33 µM, the TGI (MALME-3M melanoma) was 3.62 µM and the TGI (SF-539 CNS) was 6.39 µM. It also gave a TGI (MDA-MB-435) of 3.48 µM, a TGI (OVCAR-5 ovarian) of 4.58 µM and a TGI (SK-MEL-2 melanoma) of 10.7 µM.
